We go through 29 compounds from patent US11584765B2 (priority 2017, dated 2023).

The subject of the assay is C57BL/6 mice. Kind of assay: animal or person. The format is in vivo. The conditions noted are these: Mus musculus, sc, 0.5 h, s.c. administration, 30 min, 55° C. water, read-out: ED50 (mg/kg) at 30 min on C57BL/6 mice in Warm-water Tail-flick Test.

For `CCOCC1(CCc2csc(C)c2)CCN(Cc2cccnc2)C1` (centres unmarked) [Compound 287, 3-((3-(ethoxymethyl)-3-(2-(5-methylthiophen-yl)ethyl)pyrrolidin-1-yl)methyl)pyridine], the ED50 was less than 10 mg/kg.
Next, `CCOCC1(CCc2cscc2C)CCN(Cc2cccnc2)C1` (centres unmarked) [Compound 288, 3-((3-(ethoxymethyl)-3-(2-(4-methylthiophen-yl)ethyl)pyrrolidin-1-yl)methyl)pyridine]: less than 10 mg/kg; `CCOCC1(CCc2ccc(Cl)cc2)CCN(Cc2cccnc2)C1` (centres unmarked) [Compound 289, 3-((3-(4-chlorophenethyl)-3-(ethoxy-methyl)pyrrolidin-1-yl)methyl)pyridine]: greater than 10 mg/kg; `CCOCC1(CCc2ccc(F)cc2)CCN(Cc2cccnc2)C1` (centres unmarked) [Compound 290, 3-((3-(ethoxy-methyl)-3-(4-fluoro-phenethyl)pyrrolidin-1-yl)methyl)pyridine]: less than 10 mg/kg.
Next, `CCOCC1(CCc2ccc(C)cc2)CCN(Cc2cccnc2)C1` (centres unmarked) [Compound 291, 3-((3-(ethoxymethyl)-3-(4-methyl-phenethyl)pyrrolidin-1-yl)methyl)pyridine]: greater than 10 mg/kg; `CCOCC1(CCc2ccc(OC)cc2)CCN(Cc2cccnc2)C1` (centres unmarked) [Compound 292, 3-((3-(ethoxymethyl)-3-(4-methoxy-phenethyl)pyrrolidin-1-yl)methyl)pyridine]: greater than 10 mg/kg.
`C1=CC(C2(CCc3cccs3)CCN(Cc3cccnc3)CC2)OC1` (centres unmarked) [Compound 293, 3-((4-(2,5-dihydrofuran-2-yl)-4-(2-(thiophen-2-yl)ethyl)piperidin-1-yl)methyl)pyridine]: the ED50 is greater than 10 mg/kg.
The result for `CCOCC1(CCc2ccccc2)CCN(C(C)c2ccc(C)nc2)C1` (centres unmarked) [Compound 294, 5-(1-(3-(ethoxymethyl)-3-phenethyl-pyrrolidin-1-yl)ethyl)-2-methylpyridine] reads less than 10 mg/kg.
The result for `CCOCC1(CCc2ccc(F)cc2)CCN(C(C)c2ccc(C)nc2)C1` (centres unmarked) [Compound 295, 5-(1-(3-(ethoxymethyl)-3-(4-fluoro-phenethyl)pyrrolidin-1-yl)ethyl)-2-methylpyridine] reads less than 10 mg/kg; that for `CCOCC1(CCc2ccc(F)cc2)CCN(Cc2ccc(C)nc2)C1` (centres unmarked) [Compound 296, 5-((3-(ethoxymethyl)-3-(4-fluoro-phenethyl)pyrrolidin-1-yl)methyl)-2-methylpyridine], less than 10 mg/kg; that for `CCOCC1(CCc2cc(C)cs2)CCN(Cc2ccc(C)nc2)C1` (centres unmarked) [Compound 297, 5-((3-(ethoxymethyl)-3-(2-(4-methylthiophen-2-yl)ethyl)pyrrolidin-1-yl)methyl)-2-methylpyridine], less than 10 mg/kg.
The result for `CCOCC1(CCc2ccccc2)CCN(C(CC)c2ccc(C)nc2)C1` (centres unmarked) [Compound 298, 5-(1-(3-(ethoxymethyl)-3-phenethylpyrrolidin-1-yl)propyl)-2-methylpyridine] reads less than 10 mg/kg; that for `CCOCC1(CCc2cc(C)cs2)CCN(Cc2ccc(C)nc2)CC1` [Compound 299, 5-((4-(ethoxymethyl)-4-(2-(4-methylthiophen-2-yl)ethyl)piperidin-1-yl)methyl)-2-methylpyridine], less than 10 mg/kg.
Regarding `CCOCC1(CCc2ccc(F)s2)CCN(Cc2ccc(C)nc2)C1` (centres unmarked) [Compound 300, 5-((3-(ethoxymethyl)-3-(2-(5-fluorothiophen-2-yl)ethyl)pyrrolidin-1-yl)methyl)-2-methylpyridine], the ED50 was less than 10 mg/kg.
The result for `CCOCC1(CCc2cc3ccccc3s2)CCN(Cc2ccc(C)nc2)C1` (centres unmarked) [Compound 301, 5-((3-(2-(benzo[b]thiophen-2-yl)ethyl)-3-(ethoxy-methyl)pyrrolidin-1-yl)methyl)-2-methylpyridine] reads greater than 10 mg/kg.
With `CCOCC1(CCc2csc3ccccc23)CCN(Cc2ccc(C)nc2)C1` (centres unmarked) [Compound 302, 5-((3-(2-(benzo[b]thiophen-3-yl)ethyl)-3-(ethoxy-methyl)pyrrolidin-1-yl)methyl)-2-methylpyridine], the ED50 is less than 10 mg/kg.
Next, `CCOC[C@@]1(CCc2ccccc2)CCN(C(C)c2ccc(C)nc2)C1.Cl` (stereo partly drawn) [Compound 303, 5-(1-((S)-3-(ethoxymethyl)-3-phenethylpyrrolidin-1-yl)ethyl)-2-methylpyridine HCl]: less than 10 mg/kg; `CCOCC1(CCc2ccc(C)s2)CCN(Cc2ccc(C)nc2)CC1` [Compound 304, 5-((4-(ethoxymethyl)-4-(2-(5-methylthiophen-2-yl)ethyl)piperidin-1-yl)methyl)-2-methylpyridine]: less than 10 mg/kg.
Next, `CCOCC1(CCc2ccccc2)CCN(C(C)c2ccc(C)nc2C)C1` (centres unmarked) [Compound 305, 3-(1-(3-(ethoxymethyl)-3-phenethylpyrrolidin-1-yl)ethyl)-2,6-dimethylpyridine]: less than 10 mg/kg; `CCOCC1(CCc2ccsc2)CCN(Cc2ccc(C)nc2C)C1` (centres unmarked) [Compound 306, 3-((3-(ethoxymethyl)-3-(2-(thiophen-3-yl)ethyl)pyrrolidin-1-yl)methyl)-2,6-dimethylpyridine]: less than 10 mg/kg.
Regarding `CCOC[C@@]1(CCc2ccccc2)CCN(Cc2ccc(C)nc2C)C1` [Compound 307, (S)-3-((3-(ethoxymethyl)-3-phenethylpyrrolidin-1-yl)methyl)-2,6-dimethylpyridine], the ED50 was less than 10 mg/kg.
For `CCOCC1(CCc2nc3ccccc3o2)CCN(Cc2cccnc2)C1` (centres unmarked) [Compound 308, 2-(2-(3-(ethoxymethyl)-1-(pyridin-3-ylmethyl)pyrrolidin-3-yl)ethyl)benzo[d]oxazole], the ED50 was greater than 10 mg/kg.
The result for `CCOCC1(CCc2csc3ccccc23)CCN(Cc2cccnc2)C1` (centres unmarked) [Compound 309, 3-((3-(2-(benzo[b]thiophen-3-yl)ethyl)-3-(ethoxy-methyl)pyrrolidin-1-yl)methyl)pyridine] reads greater than 10 mg/kg; that for `Cc1ccc(CN2CCC(CCc3ccccc3)(c3ccccn3)CC2)c(C)n1` [Compound 310, 2,6-dimethyl-3-((4-phenethyl-4-(pyridin-2-yl)piperidin-1-yl)methyl)pyridine], less than 10 mg/kg.
The result for `CCOCC1(CCc2ccc(F)cc2)CCN(Cc2ccc(C)nc2C)C1` (centres unmarked) [Compound 311, 3-((3-(ethoxymethyl)-3-(4-fluoro-phenethyl)pyrrolidin-1-yl)methyl)-2,6-dimethylpyridine] reads less than 10 mg/kg.
Next, `CCOCC1(CCc2cc(C)sc2C)CCN(Cc2cnn(C)c2)C1` (centres unmarked) [Compound 312, 4-((3-(2-(2,5-dimethylthiophen-3-yl)ethyl)-3-(ethoxy-methyl)pyrrolidin-1-yl)methyl)-1-methyl-1H-pyrazole]: less than 10 mg/kg.
On to `CCOCC1(c2ccccn2)CCN(Cc2ccc(C)nc2C)C1` (centres unmarked) [Compound 313, 3-((3-(ethoxymethyl)-3-(pyridin-2-yl)pyrrolidin-1-yl)methyl)-2,6-dimethylpyridine], for which the ED50 was greater than 10 mg/kg.
Next, `COCCC1(c2ccccn2)CCN(Cc2ccc(C)nc2C)C1` (centres unmarked) [Compound 314, 3-((3-(2-methoxyethyl)-3-(pyridin-2-yl)pyrrolidin-1-yl)methyl)-2,6-dimethylpyridine]: greater than 10 mg/kg; `CCOCC1(CCc2ccccc2)CCN(Cc2cccn2-c2cccnc2)C1` (centres unmarked) [Compound 315, 3-(2-((3-(ethoxymethyl)-3-phenethylpyrrolidin-1-yl)methyl)-1H-pyrrol-1-yl)pyridine]: greater than 10 mg/kg.
